# Tests used:
# [1] = test system: p-Btk(Y223) in CD20+ B cells; test: Phosphoflow cytometry of p-Btk(Y223) in CD20+ B cell gate of healthy PBMCs; assay type: cell-based; conditions: 2 hours incubation, anti-IgM or anti-IgM+SDF-1 for 5 minutes, low nM concentrations, FIG. 1
# Procedure: (§1) Cells were then analyzed by phosphoflow cytometry and p-Btk(Y223) was measured in the CD20+ B cell gate and the CD14^+ monocyte gate separately. In B cells, BTK phosphorylation in anti-IgM stimulated B cells is increased with the addition of SDF-1 (CXCL-12) in the “No drug” condition. […] In monocytes, BTK phosphorylation is only observed when SDF-1 is present.
# [2] = test system: p-Btk(Y223) in CD14+ monocytes; test: Phosphoflow cytometry of p-Btk(Y223) in CD14+ monocyte gate of healthy PBMCs; assay type: cell-based; conditions: SDF-1 stimulation, FIG. 2
# Procedure: as §1
# [3] = test system: CXCR4 surface expression in B-CLL cells; test: CXCR4 surface expression in B-CLL cells of CLL patients after administration; assay type: in vivo, human; conditions: CLL patients with 17p deletion, blood 4, 24, 48 hours after day 3 dose
# Procedure: Drug was given for 3 days. Blood was drawn predose, and then 4, 24, and 48 hours after the day 3 dose.
# RANK MDA-MB231 = RANK MDA-MB231 mouse experiment (bone metastases, bioluminescence imaging); assay type: in vivo; conditions: ~10 and ~50 mg/kg/day PO, 2 weeks of treatment, FIG. 9
# Description: FIG. 9 illustrates the results of a RANK MDA-MB231 mouse experiment. […] The primary endpoint was bioluminescence imaging (weekly). The secondary endpoints were serum CTx (bone resorption) and serum P1NP (bone formation).
compound,measurement,setting,value
"CC#CC(=O)N1CCC[C@H]1c1nc(-c2ccc(C(=O)Nc3ccccn3)cc2)c2c(N)nccn12 [Formula (II), (S)-4-(8-amino-3-(1-(but-2-ynoyl)pyrrolidin-2-yl)imidazo[1,5-a]pyrazin-1-yl)-N-(pyridin-2-yl)benzamide]","BTK phosphorylation, p-Btk(Y223), in B cells",[1],inhibited
same,SDF-1/CXCR4 signaling (SDF-1 induced p-Btk) in monocytes,[2],inhibits
same,CXCR4 surface expression in B-CLL cells compared to predose,"[3]; 100 mg BID for 3 days, FIG. 3",reduced
same,CXCR4 surface expression in B-CLL cells compared to predose,"[3]; 200 mg QD for 3 days, FIG. 4",reduced
same,Bone metastases (bioluminescence imaging),RANK MDA-MB231,dose-response reduction
